Earlier results as cited in PMC13095657, “A two-step mechanism for sugar translocation” (Nature Structural & Molecular Biology, 2026).

Molecular target: T1, XylE (Escherichia coli, UniProt P0AGF4)
T1 construct: made in house; host or cells: E. coli BL21-Gold (DE3)
Conditions: XylE WT in liposomes; ref https://www.jbc.org/action/showPdf?pii=S0021-9258%2821%2901315-6; read-out: KM by SSM

T1 sequence (P0AGF4 whole entry): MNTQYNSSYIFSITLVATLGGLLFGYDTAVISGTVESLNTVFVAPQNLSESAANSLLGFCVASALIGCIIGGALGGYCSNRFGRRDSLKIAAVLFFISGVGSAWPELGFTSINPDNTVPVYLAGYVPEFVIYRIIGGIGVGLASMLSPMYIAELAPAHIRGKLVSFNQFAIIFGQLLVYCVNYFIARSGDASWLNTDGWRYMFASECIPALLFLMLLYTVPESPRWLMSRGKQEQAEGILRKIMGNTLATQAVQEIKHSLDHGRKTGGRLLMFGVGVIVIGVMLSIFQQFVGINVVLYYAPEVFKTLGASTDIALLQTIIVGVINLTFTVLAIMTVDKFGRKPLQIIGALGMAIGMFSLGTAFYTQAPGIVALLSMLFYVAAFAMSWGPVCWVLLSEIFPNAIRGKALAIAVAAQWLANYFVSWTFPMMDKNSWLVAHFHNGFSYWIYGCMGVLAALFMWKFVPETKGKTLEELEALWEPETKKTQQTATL

OC1OC[C@@H](O)[C@H](O)[C@H]1O (stereo partly drawn) [D-xylose]
Km: 1700 µM
